Test results reported in patent US20260193293A1, “PEPTIDES CAPABLE OF INHIBITING PROTEIN-PROTEIN INTERACTIONS AT GABAB1A SUBUNIT AND USES THEREOF” (UNIVERSITY OF COPENHAGEN, priority 2022, published 2026).
Where two headings read alike, the source gives them in different places. Blank lines part the entries; values can stand above or below the molecule they belong to. Non-standard residues stand in square brackets, D forms with d. Residues, ends and D or L forms follow the SMILES beside them. Phe(4-F) = N[C@@H](Cc1ccc(F)cc1)C(=O)O; NMeI = CC[C@H](C)[C@H](NC)C(=O)O; NMeD = CN[C@@H](CC(=O)O)C(=O)O

Biological target: Sushi domains (SD1/2) protein
Test: Fluorescence polarization (FP) competition assay with AJAP-1probe, calculated Ki
Type: binding
Procedure, shortened: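 Competition against 25 nM TAMRA-labelled peptide probe binding SD1/2, in PBS pH 7.4 with 1% BSA at rt, read at 530/580 nm. IC50 from sigmoidal dose-response fits, at least triplicate; Ki calculated from IC50 using probe Kd from saturation binding.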

[1] = Table 12, deep mutational scanning validation variants of PIANPWT, read-out: Ki (nM) mean ± SEM
[2] = Table 16, ncAAs incorporated peptides, read-out: Ki (nM) mean ± SEM
[3] = Table 10, deep mutational scanning validation variants of APPWT, read-out: Ki (nM) mean ± SEM
[4] = Table 8, Ala-, D-amino acids and N-methylation scans of AJAP-1WT, read-out: Ki (nM) mean ± SEM
[5] = Table 7, Ala-, D-amino acids and N-methylation scans of APPWT, read-out: Ki (nM) mean ± SEM
[6] = Table 11, deep mutational scanning validation variants of AJAP-1WT, read-out: Ki (nM) mean ± SEM
[7] = Table 4, truncation and elongation scans of APP epitope, read-out: Ki (nM) mean ± SEM

- Ki [4]: 33 ± 1 nM
Molecule: CC[C@H](C)[C@@H](C(=O)N[C@@H](C)C(=O)N[C@@H](Cc1c[nH]c2ccccc12)C(=O)NCC(=O)N1CCC[C@H]1C(=O)N[C@H](C(=O)NCC(=O)N[C@@H](CC(=O)O)C(=O)N[C@@H](CCC(=O)O)C(=O)N[C@@H](CC(=O)O)C(N)=O)[C@@H](C)O)N(C)C(=O)[C@H](Cc1ccccc1)NC(=O)[C@H](CCC(=O)O)NC(=O)[C@@H](NC(=O)[C@H](CCC(=O)O)NC(C)=O)[C@@H](C)O [ETEF(N-Me-I)AWGPTGDED] (Ac-ETEF[NMeI]AWGPTGDED-NH2)

- Ki [5]: 480 ± 8 nM
Molecule: CC(=O)N[C@@H](CCC(=O)O)C(=O)N[C@@H](CC(=O)O)C(=O)N[C@@H](CC(=O)O)C(=O)N[C@@H](CO)C(=O)N[C@@H](CC(=O)O)C(=O)N[C@H](C(=O)N[C@@H](Cc1c[nH]c2ccccc12)C(=O)N[C@@H](Cc1c[nH]c2ccccc12)C(=O)NCC(=O)NCC(=O)N[C@@H](C)C(=O)N[C@@H](CC(=O)O)C(=O)N[C@@H](C)C(=O)N[C@@H](CC(=O)O)C(N)=O)C(C)C (Ac-EDDSDVWWGGADAD-NH2)

- Ki [1]: 906 ± 20 nM
Molecule: CC[C@H](C)[C@H](NC(=O)[C@H](C)NC(=O)[C@H](CO)NC(=O)[C@@H]1CCCN1C(C)=O)C(=O)N[C@H](C(=O)N[C@@H](Cc1c[nH]c2ccccc12)C(=O)NCC(=O)N1CCC[C@H]1C(=O)N[C@H](C(=O)N[C@H](C(=O)N[C@@H](CO)C(=O)N[C@@H](CCCNC(=N)N)C(=O)N[C@@H](CCC(=O)O)C(=O)N[C@@H](CC(=O)O)C(N)=O)C(C)C)[C@@H](C)O)C(C)C [PSAIVWGPTVSRED] (Ac-PSAIVWGPTVSRED-NH2)

- Ki [5]: 671 ± 27 nM
Molecule: CC(=O)N[C@@H](CCC(=O)O)C(=O)N[C@@H](CC(=O)O)C(=O)N(C)[C@@H](CC(=O)O)C(=O)N[C@@H](CO)C(=O)N[C@@H](CC(=O)O)C(=O)N[C@H](C(=O)N[C@@H](Cc1c[nH]c2ccccc12)C(=O)N[C@@H](Cc1c[nH]c2ccccc12)C(=O)NCC(=O)NCC(=O)N[C@@H](C)C(=O)N[C@@H](CC(=O)O)C(=O)N[C@H](C(=O)N[C@@H](CC(=O)O)C(N)=O)[C@@H](C)O)C(C)C (Ac-ED[NMeD]SDVWWGGADTD-NH2)

- Ki [6]: 40 ± 2 nM
Molecule: CC[C@H](C)[C@H](NC(=O)[C@H](Cc1ccccc1)NC(=O)[C@H](CCC(=O)O)NC(=O)[C@@H](NC(=O)[C@H](CCC(=O)O)NC(C)=O)[C@@H](C)O)C(=O)N[C@@H](C)C(=O)N[C@@H](Cc1c[nH]c2ccccc12)C(=O)NCC(=O)N1CCC[C@H]1C(=O)N[C@H](C(=O)NCC(=O)N[C@@H](CC(=O)O)C(=O)N[C@@H](CCC(=O)O)C(=O)N[C@H](C(N)=O)C(C)C)[C@@H](C)O (Ac-ETEFIAWGPTGDEV-NH2)

- Ki (Table 6, elongation and truncation scan of PIANP binding epitope, read-out: Ki (nM) mean ± SEM): 433 ± 2 nM
Molecule: CC[C@H](C)[C@H](NC(=O)[C@H](C)NC(=O)[C@H](Cc1c[nH]c2ccccc12)NC(=O)[C@@H]1CCCN1C(C)=O)C(=O)N[C@H](C(=O)N[C@@H](Cc1c[nH]c2ccccc12)C(=O)NCC(=O)N1CCC[C@H]1C(=O)N[C@H](C(=O)N[C@H](C(=O)N[C@@H](CO)C(=O)N[C@@H](CCCNC(=N)N)C(N)=O)C(C)C)[C@@H](C)O)C(C)C (Ac-PWAIVWGPTVSR-NH2)

- Ki [6]: 30 ± 1 nM
Molecule: CC[C@H](C)[C@H](NC(=O)[C@H](Cc1ccccc1)NC(=O)[C@H](CCC(=O)O)NC(=O)[C@@H](NC(=O)[C@H](CCC(=O)O)NC(C)=O)[C@@H](C)O)C(=O)N[C@H](C(=O)N[C@@H](Cc1c[nH]c2ccccc12)C(=O)NCC(=O)N1CCC[C@H]1C(=O)N[C@H](C(=O)NCC(=O)N[C@@H](CC(=O)O)C(=O)N[C@@H](CCC(=O)O)C(=O)N[C@@H](CC(=O)O)C(N)=O)[C@@H](C)O)C(C)C [ETEFIVWGPTGDED] (Ac-ETEFIVWGPTGDED-NH2)

- Ki [7]: 6100 ± 307 nM
Molecule: CC(=O)N[C@@H](CC(=O)O)C(=O)N[C@H](C(=O)N[C@@H](Cc1c[nH]c2ccccc12)C(=O)N[C@@H](Cc1c[nH]c2ccccc12)C(=O)NCC(=O)NCC(=O)N[C@@H](C)C(=O)N[C@@H](CC(=O)O)C(=O)N[C@H](C(=O)N[C@@H](CC(=O)O)C(=O)N[C@@H](Cc1ccc(O)cc1)C(=O)N[C@@H](C)C(=O)N[C@@H](CC(=O)O)C(N)=O)[C@@H](C)O)C(C)C (Ac-DVWWGGADTDYAD-NH2)

- Ki [4]: 53 ± 2 nM
Molecule: CC[C@H](C)[C@H](NC(=O)[C@H](Cc1ccccc1)NC(=O)[C@H](CCC(=O)O)NC(=O)[C@@H](NC(=O)[C@H](C)NC(C)=O)[C@@H](C)O)C(=O)N[C@@H](C)C(=O)N[C@@H](Cc1c[nH]c2ccccc12)C(=O)NCC(=O)N1CCC[C@H]1C(=O)N[C@H](C(=O)NCC(=O)N[C@@H](CC(=O)O)C(=O)N[C@@H](CCC(=O)O)C(=O)N[C@@H](CC(=O)O)C(N)=O)[C@@H](C)O [ATEFIAWGPTGDED] (Ac-ATEFIAWGPTGDED-NH2)

- Ki [6]: 34 ± 1 nM
Molecule: CC[C@H](C)[C@H](NC(=O)[C@H](Cc1ccccc1)NC(=O)[C@H](CO)NC(=O)[C@@H](NC(=O)[C@H](CCC(=O)O)NC(C)=O)[C@@H](C)O)C(=O)N[C@@H](C)C(=O)N[C@@H](Cc1c[nH]c2ccccc12)C(=O)NCC(=O)N1CCC[C@H]1C(=O)N[C@H](C(=O)NCC(=O)N[C@@H](CC(=O)O)C(=O)N[C@@H](CCC(=O)O)C(=O)N[C@@H](CC(=O)O)C(N)=O)[C@@H](C)O [ETSFIAWGPTGDED] (Ac-ETSFIAWGPTGDED-NH2)

The next lines start with the molecule.

Molecule: CC[C@H](C)[C@H](NC(=O)[C@H](Cc1c[nH]c2ccccc12)NC(=O)[C@@H]1CCCN1C(C)=O)C(=O)N[C@H](C(=O)N[C@H](C(=O)N[C@@H](Cc1c[nH]c2ccccc12)C(=O)NCC(=O)N1CCC[C@H]1C(=O)N[C@H](C(=O)N[C@H](C(=O)N[C@@H](CO)C(=O)N[C@@H](CCCNC(=N)N)C(=O)N[C@@H](CCC(=O)O)C(=O)N[C@@H](CC(=O)O)C(N)=O)C(C)C)[C@@H](C)O)C(C)C)[C@@H](C)CC [PWIIVWGPTVSRED]
- Ki [1]: 339 ± 8 nM

Molecule: CCOc1ccc(C[C@H](NC(=O)[C@H](CO)NC(=O)[C@H](CC(=O)O)NC(=O)[C@H](CC(=O)O)NC(=O)[C@H](CCC(=O)O)NC(C)=O)C(=O)N[C@H](C(=O)N[C@@H](Cc2c[nH]c3ccccc23)C(=O)N[C@@H](Cc2c[nH]c3ccccc23)C(=O)NCC(=O)NCC(=O)N[C@@H](C)C(=O)N[C@@H](CC(=O)O)C(=O)N[C@H](C(=O)N[C@@H](CC(=O)O)C(N)=O)[C@@H](C)O)C(C)C)cc1 (Ac-EDDSY(Et)VWWGGADTD-NH2)
- Ki [2]: 46 ± 2 nM
- Ki (purified peptides, read-out: Ki): 46.3 nM
- fold increased affinity compared to Asp207Trp (relative to Asp207Trp mutant of APPWT): 2 fold

Molecule: CC(=O)N[C@@H](CCC(=O)O)C(=O)N[C@@H](CC(=O)O)C(=O)N[C@@H](CC(=O)O)C(=O)N[C@@H](CO)C(=O)N[C@@H](CC(=O)O)C(=O)N[C@H](C(=O)N[C@@H](CC(=O)O)C(=O)N[C@@H](Cc1c[nH]c2ccccc12)C(=O)NCC(=O)NCC(=O)N[C@@H](C)C(=O)N[C@@H](CC(=O)O)C(=O)N[C@H](C(=O)N[C@@H](CC(=O)O)C(N)=O)[C@@H](C)O)C(C)C (Ac-EDDSDVDWGGADTD-NH2)
- Ki [3]: 4804 ± 43 nM

Molecule: EDDS(Fphe)VWWGGADTD (Ac-EDDS[Phe(4-F)]VWWGGADTD-NH2)
- Ki [2]: 117 ± 2 nM

Molecule: COc1ccc(C[C@H](NC(=O)[C@H](CO)NC(=O)[C@H](CC(=O)O)NC(=O)[C@H](CC(=O)O)NC(=O)[C@H](CCC(=O)O)NC(C)=O)C(=O)N[C@H](C(=O)N[C@@H](Cc2c[nH]c3ccccc23)C(=O)N[C@@H](Cc2c[nH]c3ccccc23)C(=O)NCC(=O)NCC(=O)N[C@@H](C)C(=O)N[C@@H](CC(=O)O)C(=O)N[C@H](C(=O)N[C@@H](CC(=O)O)C(N)=O)[C@@H](C)O)C(C)C)cc1 (Ac-EDDSY(Me)VWWGGADTD-NH2)
- Ki [2]: 101 ± 4 nM

Molecule: CC[C@H](C)[C@H](NC(=O)[C@H](Cc1ccccc1)NC(=O)[C@H](CCC(=O)O)NC(=O)[C@@H](NC(=O)[C@H](CCC(=O)O)NC(C)=O)[C@@H](C)O)C(=O)N[C@@H](Cc1c[nH]cn1)C(=O)N[C@@H](Cc1c[nH]c2ccccc12)C(=O)NCC(=O)N1CCC[C@H]1C(=O)N[C@H](C(=O)NCC(=O)N[C@@H](CC(=O)O)C(=O)N[C@@H](CCC(=O)O)C(=O)N[C@@H](CC(=O)O)C(N)=O)[C@@H](C)O [ETEFIHWGPTGDED] (Ac-ETEFIHWGPTGDED-NH2)
- Ki [6]: 24 ± 1 nM

Molecule: CC[C@H](C)[C@H](NC(=O)[C@@H](NC(=O)[C@H](CC(=O)O)NC(=O)[C@H](CO)NC(=O)[C@H](CC(=O)O)NC(=O)[C@H](CC(=O)O)NC(=O)[C@H](CCC(=O)O)NC(C)=O)C(C)C)C(=O)N[C@@H](Cc1c[nH]c2ccccc12)C(=O)NCC(=O)NCC(=O)N[C@@H](C)C(=O)N[C@@H](CC(=O)O)C(=O)N[C@H](C(=O)N[C@@H](CC(=O)O)C(N)=O)[C@@H](C)O (Ac-EDDSDVIWGGADTD-NH2)
- Ki [3]: 951 ± 20 nM

Molecule: CC[C@H](C)[C@H](NC(=O)[C@H](Cc1c[nH]c2ccccc12)NC(=O)[C@H](CC(=O)O)NC(=O)[C@H](CC(=O)O)NC(=O)[C@H](CC(=O)O)NC(=O)[C@H](CCC(=O)O)NC(C)=O)C(=O)N[C@@H](CC(=O)O)C(=O)N[C@@H](Cc1c[nH]c2ccccc12)C(=O)NCC(=O)N1CCC[C@H]1C(=O)N[C@H](C(=O)N[C@@H](CO)C(=O)N[C@@H](CC(=O)O)C(=O)N[C@@H](CC(=O)O)C(=O)N[C@@H](CC(=O)O)C(=O)N[C@@H](CCC(=O)O)C(=O)N[C@@H](C)C(=O)N[C@@H](C)C(=O)N[C@@H](C)C(=O)N[C@@H](CCCCN)C(=O)N[C@@H](CCCNC(=N)N)C(=O)N[C@@H](CCCNC(=N)N)C(=O)N[C@@H](CCCNC(=N)N)C(=O)N[C@@H](CCCNC(=N)N)C(=O)N[C@@H](CCCNC(=N)N)C(=O)N[C@@H](CCCNC(=N)N)C(=O)N[C@@H](CCCNC(=N)N)C(=O)N[C@@H](CCCNC(=N)N)C(N)=O)[C@@H](C)O [Peptide 17-RL-R8] (Ac-EDDDWIDWGPTSDDDEAAAKRRRRRRRR-NH2)
- Ki (CPP tagged peptides overview, SD1/2 binding affinity, mean ± SEM, n ≥ 3, read-out: Ki): 139 ± 2 nM
- Ki (Table 14, CPPs tagged peptides, read-out: Ki (nM) mean ± SEM): 139 ± 2 nM

Molecule: CC(=O)N[C@@H](CCC(=O)O)C(=O)N[C@@H](CCC(=O)O)C(=O)N[C@@H](CC(=O)O)C(=O)N[C@@H](CC(=O)O)C(=O)N[C@@H](CO)C(=O)N[C@@H](CC(=O)O)C(=O)N[C@H](C(=O)N[C@@H](Cc1c[nH]c2ccccc12)C(=O)N[C@@H](Cc1c[nH]c2ccccc12)C(=O)NCC(N)=O)C(C)C (Ac-EEDDSDVWWG-NH2)
- Ki [7]: 12800 ± 415 nM
